Source: PubChem BioAssay AID1959 (Broad Institute, 2009)
Activity calls are given as the source filed them.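 The calls were made as follows: active = growth-inhibition EC50 no more than tenfold above the top tested dose; inconclusive = flat fit between 30% and 70% inhibition, or unreliable fit; inactive = EC50 more than tenfold above the top tested dose.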

Test system: E. coli NEB5alpha growth, BacTiter-Glo luminescence, 4 h
Assay: antibacterial activity against E. coli NEB5alpha – luminescence, counter-screen for MEX-5/POS-1 RNA-binding inhibitor project, dose response (AID 1959);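 also: pUC19-transformed ampicillin-resistant cells grown in LB with ampicillin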

## CC(=O)NC1=NC(=O)/C(=C/c2cc(C)n(-c3cccc(C(=O)O)c3)c2C)S1
  EC50: > 11 µM (inactive)

## O=C(N/N=C\c1ccc(-c2ccc(Cl)c(Cl)c2)o1)C(=O)N1CCCC1
  EC50: > 11 µM (inactive)

## Oc1ccc(/C=N/Nc2ncnc3nc[nH]c23)cc1
  EC50: > 11 µM (inactive)

## S=C(NCc1ccncc1)Nc1ccc(Cl)cc1Cl
  EC50: > 11 µM (inactive)

## Cc1ccccc1N1C(=O)NC(=O)/C(=C\c2cc(C)n(C)c2C)C1=O
  EC50: > 11 µM (inactive)

## O=C(N/N=C/C=C/c1ccc([N+](=O)[O-])cc1)c1cccs1
  EC50: > 11 µM (inactive)

## C=CCNC(=S)Nc1cc(Cl)ccc1OC
  EC50: > 11 µM (inactive)

## Cc1ccc(-c2ccccc2)n1-c1cccc(C(=O)O)c1
  EC50: > 11 µM (inactive)

## COc1ccccc1-c1cnn2c(NCc3ccccc3)cc(C)nc12
  EC50: > 11 µM (inactive)

## O=C1C(Cl)=C(Nc2ccccc2O)C(=O)N1c1ccccc1
  EC50: > 11 µM (inactive)

## O=C(O)Cc1ccc(O)c(O)c1
  EC50: > 11 µM (inactive)

## C=CCn1c(=S)[nH]c2nc3c(cc2c1=O)COC(C)(C)C3
  EC50: > 11 µM (inactive)

## C(=N\NC(=Nc1ccccc1)c1ccccn1)/c1ccccn1
  EC50: > 11 µM (inactive)

## Oc1cccc(/C=N/N=C/c2cccc(O)c2O)c1O
  EC50: > 11 µM (inactive)

## CN1CCN(/C=N/C2=C(C#N)C(c3ccccc3)C3=C(CC(C)(C)CC3=O)O2)CC1 (stereo unspecified)
  EC50: > 11 µM (inactive)

## CCOc1cccc(=O)c2c(C)n(-c3ccc(C(=O)O)cc3)c(C)c12
  EC50: > 11 µM (inactive)

## CC1(C)CC(=O)C2=C(C1)OC(N)=C(C#N)C2c1ccccc1 (stereo unspecified)
  EC50: > 11 µM (inactive)

## COc1cc2c3nnc(-c4ccccc4)c-3cn(Cc3ccc(F)cc3)c2cc1OC
  EC50: > 11 µM (inactive)

## Cc1ccc(NC(=O)CCS(=O)(=O)c2cc3c(cc2Cl)NC(=O)CO3)cc1
  EC50: > 11 µM (inactive)

## CC(C)OC(=O)CC(=O)c1sc2nc3c(cc2c1N)CN(C)CC3
  EC50: > 11 µM (inactive)

## Fc1ccc(C2=CC(c3ccco3)n3ncnc3N2)cc1 (stereo unspecified)
  EC50: > 11 µM (inactive)

## COCCCNC(=O)C(C#N)c1nc2ccccc2nc1N1CCCC1 (stereo unspecified)
  EC50: > 11 µM (inactive)

## CC(C)(C)OC(=O)NCCCC1=CC2=CC(=O)C(C)(OC(=O)c3ccco3)C(=O)C2=CO1 (stereo unspecified)
  EC50: > 11 µM (inactive)

## Cc1ccc(C(=O)CSc2nc3c([nH]2)c(=O)n(C)c(=O)n3C)cc1
  EC50: > 11 µM (inactive)

## COc1cccc(OCCCn2cc(/C=C3/C(=N)N4C=C(C)SC4=NC3=O)c3ccccc32)c1
  EC50: > 11 µM (inactive)

## COc1cccc(NS(=O)(=O)c2ccc3c(c2)C2C=CCC2C(c2ccc(C(=O)O)cc2)N3)c1 (stereo unspecified)
  EC50: > 11 µM (inactive)

## CCN(CC)C(=O)CSc1nnc2nnc3cc(OC)ccc3n12
  EC50: > 11 µM (inactive)

## Oc1ccc(N=Nc2ccccc2-c2nn[nH]n2)c(O)c1
  EC50: > 11 µM (inactive)

## O=C1/C(=N\S(=O)(=O)c2cccs2)C([n+]2ccc(CCCc3ccccc3)cc2)=C([O-])c2ccccc21
  EC50: > 11 µM (inactive)

## CNC(=O)c1c(NC(=O)c2ccc(S(=O)(=O)N3CCCc4ccccc43)cc2)sc2c1CCN(C)C2
  EC50: > 11 µM (inactive)

## CN(C)c1ccc(/C=C(\C#N)C(=O)NCc2ccco2)cc1
  EC50: > 11 µM (inactive)

## COc1ccc(OC)c(N2C(=O)/C(=C/c3ccco3)C(=O)NC2=S)c1
  EC50: > 11 µM (inactive)

## Cc1ccccc1NC(=O)CN1C(=O)S/C(=C\c2cccn2-c2cccc(C(=O)O)c2)C1=O
  EC50: > 11 µM (inactive)

## Cc1ccc[n+](-c2[nH]c(=O)sc2/C=N/NC(=O)c2ccccc2[O-])c1
  EC50: > 11 µM (inactive)

## CCOc1ccc(NC(=O)COc2ccccc2)c([N+](=O)[O-])c1
  EC50: > 11 µM (inactive)

## Cc1nc2ccccc2c(=O)n1/N=C/c1ccc(O)c(O)c1O
  EC50: > 11 µM (inactive)

## COc1ncnc2c1NC1=C(S2)C(=NCCC(=O)O)CC(C)(C)C1
  EC50: > 11 µM (inactive)

## Cc1cc(=O)n2[nH]c(N)c(N=Nc3ccccc3)c2n1
  EC50: > 11 µM (inactive)

## Cc1c(C(=O)O)cccc1-n1c(C)cc(/C=N/NC(=O)c2cc3ccccc3o2)c1C
  EC50: > 11 µM (inactive)

## Oc1ccc(NC(=S)N=Nc2c(O)[nH]c3ccccc23)cc1
  EC50: > 11 µM (inactive)

## CCOc1ccc(Br)cc1S(=O)(=O)NC(=O)c1ccccc1
  EC50: > 11 µM (inactive)

## Cn1ncc(Cl)c1C(=O)N/N=C/c1cccc(OC2CSC2)c1
  EC50: > 11 µM (inactive)

## COc1ccc(-c2cn[nH]c2-c2ccc(OCC(=O)NN)cc2O)cc1OC
  EC50: > 11 µM (inactive)

## COc1ccc(-c2nnc(Nc3nc4c(OC)cccc4s3)o2)c(OC)c1
  EC50: > 11 µM (inactive)

## CC(=O)C1=C(c2ccccc2)NC(=O)NC1c1ccc(O)c(O)c1 (stereo unspecified)
  EC50: > 11 µM (inactive)

## CCCCOC(=O)Cn1c2ccc(OC)cc2c2nc3ccccc3nc21
  EC50: > 11 µM (inactive)

## ClCc1nc2ccccc2n1Cc1ccccc1
  EC50: > 11 µM (inactive)

## CNC(=O)c1c(NC(=O)c2ccc(S(=O)(=O)N3CCCCC3C)cc2)sc2c1CCN(C)C2 (stereo unspecified)
  EC50: > 11 µM (inactive)

## COc1ccc(/C=C2/N=C(c3cccs3)OC2=O)cc1OC(C)C
  EC50: > 11 µM (inactive)

## O=C1C=C(Nc2cccc3cccnc23)c2ccccc2C1=O
  EC50: > 11 µM (inactive)

## CC1=Nc2ccc(C)cc2/C1=C/c1c(N)n2nc(CC(=O)N3CCOCC3)sc2nc1=O
  EC50: > 11 µM (inactive)

## O=C(NNC(=O)c1ccccc1O)c1ccco1
  EC50: > 11 µM (inactive)

## CC1=NN(C(N)=S)C(=O)C1N=Nc1cccc(C(=O)O)c1 (stereo unspecified)
  EC50: > 11 µM (inactive)

## O=C1C=C(O)c2c(O)cc(O)c(O)c2C1=O
  EC50: > 11 µM (inactive)

## Clc1cc(-c2ccc(/C=N/n3cnnc3)o2)ccc1Br
  EC50: > 11 µM (inactive)

## CCN1CCc2c(sc(NC(=O)c3ccc4ccccc4c3)c2C(N)=O)C1
  EC50: > 11 µM (inactive)

## O=C(O)c1ccccc1NS(=O)(=O)c1ccc(NNC(=S)Nc2ccc(OC(F)F)cc2)c([N+](=O)[O-])c1
  EC50: > 11 µM (inactive)

## COc1ccc(C(=O)c2sc3nc(C)cc(-c4cccs4)c3c2N)cc1OC
  EC50: > 11 µM (inactive)

## CC(=O)/C(N=Nc1nc2c([nH]1)c(=O)n(C)c(=O)n2C)=C(\C)O
  EC50: > 11 µM (inactive)

## CC1=CC(C)(C)N2C(=O)C3(C(C#N)=C(N)OC4=C3C(=O)CCC4)c3c(C)c(C)cc1c32 (stereo unspecified)
  EC50: > 11 µM (inactive)

## NS(=O)(=O)c1ccc(-c2ccc(/C=C3\SC(=O)NC3=O)o2)cc1
  EC50: > 11 µM (inactive)

## CC1(OC(=O)c2cccs2)C(=O)C=C2C=C(c3ccc(C#N)cc3)OC=C2C1=O (stereo unspecified)
  EC50: > 11 µM (inactive)

## O=C(NNC(=O)c1ccccc1[N+](=O)[O-])c1cnccn1
  EC50: > 11 µM (inactive)

## CCOC(=O)c1c2c3c(cccc3n(C)c1=O)C(=O)c1ccccc1-2
  EC50: > 11 µM (inactive)

## N#CC(C#N)=Cc1cccn1-c1ccc(C(=O)O)cc1
  EC50: > 11 µM (inactive)

## O=c1oc2ccc3ccccc3c2cc1-c1nc2ccccc2o1
  EC50: > 11 µM (inactive)

## Cc1cc(/C=C2/C(=O)NC(=O)N(c3ccc(Br)cc3)C2=O)c(C)n1C
  EC50: > 11 µM (inactive)

## CCCN1C(=O)/C(=C/c2ccc(C)o2)SC1=Nc1ccc(OC)cc1
  EC50: > 11 µM (inactive)

## O=[N+]([O-])c1cc(-c2ccc(/C=N/n3cnnc3)o2)ccc1Cl
  EC50: > 11 µM (inactive)

## COc1ccc(NC(=O)/C=C/c2cccc(Br)c2)cn1
  EC50: > 11 µM (inactive)

## COc1ccc(C(=O)/C=C/c2ccc(-c3ccccc3)cc2)cc1CSCC(=O)O
  EC50: > 11 µM (inactive)

## CCc1ccc(/C=C2/SC(=S)N(CCC(=O)Nc3cccnc3)C2=O)cc1
  EC50: > 11 µM (inactive)

## N#C/C(=C/c1cccn1-c1cccc(C(=O)O)c1)c1ccc(F)cc1
  EC50: > 11 µM (inactive)

## CCn1c(C)nc2cc(N)ccc21
  EC50: > 11 µM (inactive)

## Cc1ccccc1OCC(=O)Nc1ccc2c(c1)C(=O)c1ccccc1C2=O
  EC50: > 11 µM (inactive)

## Nc1ccc(S(=O)(=O)NNC(=O)C(=O)NNc2ccccn2)cc1
  EC50: > 11 µM (inactive)

## CC(=O)N1CCN(c2ccc(N=Cc3c(O)n(Cc4ccccc4)c(=O)[nH]c3=O)cc2)CC1
  EC50: > 11 µM (inactive)

## CN1CC=C2C(C#N)=C(N)C(C#N)(C#N)[C@H](c3cccc(Cl)c3)C2C1 (stereo partly specified)
  EC50: > 11 µM (inactive)

## CSc1nnc(SCc2nc3sc(C(=O)O)c(C)c3c(=O)[nH]2)s1
  EC50: > 11 µM (inactive)

## CCn1c(SCC(=O)Nc2cc(C)on2)nnc1-c1ccc(OC)cc1
  EC50: > 11 µM (inactive)

## Oc1[nH]c2ccc(Br)cc2c1N=Nc1nn[nH]n1
  EC50: > 11 µM (inactive)

## COc1ccc(-n2c(O)c(/C=C3\C=Nc4ccc(Br)cc43)c(=O)[nH]c2=O)c(OC)c1
  EC50: > 11 µM (inactive)

## CCN(CC)CCN(Cc1cc2ccc(C)c(C)c2[nH]c1=O)C(=S)NCc1ccco1
  EC50: > 11 µM (inactive)

## CCOc1ccc(N/C(=C(/C(Cl)=C(Cl)Cl)[N+](=O)[O-])n2cncn2)cc1
  EC50: > 11 µM (inactive)

## O=c1[nH]c2c(s1)C=Nc1ccccc1N2
  EC50: > 11 µM (inactive)

## COc1ccc(N2C(=O)NC(=O)/C(=C/c3ccc4c(c3)Cc3ccccc3-4)C2=O)cc1
  EC50: > 11 µM (inactive)

## c1ccc(-c2cn3nc(-c4ccccc4)c(-c4ccccc4)nc3n2)cc1
  EC50: > 11 µM (inactive)

## COc1cc(C(c2c(C(=O)O)[nH]c3ccccc23)c2c(C(=O)O)[nH]c3ccccc23)ccc1OCc1ccccc1
  EC50: > 11 µM (inactive)

## CCOc1ccc(-n2c(O)c(/C=N/c3ccnn3Cc3ccncc3)c3ccccc3c2=O)cc1
  EC50: > 11 µM (inactive)

## Cc1c2ccccc2nc2c(F)c(NC(C)C)c(F)c(F)c12
  EC50: > 11 µM (inactive)

## COc1ccc(N2C(=O)/C(=C/c3ccc(C)o3)C(=O)NC2=S)c(OC)c1
  EC50: > 11 µM (inactive)

## COc1ccccc1Oc1cn[nH]c1-c1ccc(OCC(=O)NN)cc1O
  EC50: > 11 µM (inactive)

## Cn1c(=O)[nH]c(=O)c2c1nc(N/N=C/C(Br)=C/c1ccccc1)n2CCO
  EC50: > 11 µM (inactive)

## CCOC(=O)c1ccc(CC(=O)c2ccc(O)c(O)c2O)o1
  EC50: > 11 µM (inactive)

## CCc1ccc(N2C(=O)NC(=O)/C(=C\c3cc(C)n(-c4cc(C(=O)O)cc(C(=O)O)c4)c3C)C2=O)cc1
  EC50: > 11 µM (inactive)

## O=C(O)c1ccc2c(c1)C(=O)/C(=C\c1ccco1)C2=O
  EC50: > 11 µM (inactive)
